Patent US8906829B2, “Synergistic algicidal compositions including hydrazone derivatives and copper” (Dow AgroSciences LLC, priority 2010, dated 2014)

Columns and labels:
C. reinhardtii = assay: Growth inhibition of C. reinhardtii by hydrazones and isolated metal-hydrazone complexes, TAP Cu minus medium (Example 12); type: cell-based, Chlamydomonas reinhardtii; conditions: for Complex % Inhn.: isolated metal complex 1 μg/mL; for inhibition of growth at 1 µg/mL: Chlamydomonas reinhardtii, parent hydrazone 1 μg/mL, read-out: Hydrazone % Inhn.
Description: In vitro toxicity assays against C. reinhardtii CC-1928 (wild type mt+137c green in dark subclone) obtained from the Chlamydomonas Resource Center at Duke University were conducted using TAP liquid growth medium described by Gorman and Levine Proc. Natl. Acad. Sci. USA 1965, 54, 1665-1669 except that CuSO4.5H2O, normally included as a component of Hutner's trace element stock solution (Hutner et al. Proc. Am. Philos. Soc. 1950, 94, 152-170), was omitted. The TAP medium lacking Cu (TAP Cu minus) was prepared by adding 400 mg NH4Cl, 10 mL of 100× Tris-Acetate (242 g Tris-base and 100 mL glacial acetic acid in 1000 mL milli Q water), and 8.3 mL of 120.5× phosphate buffer (14.34 g K2HPO4 and 7.26 g KH2PO4 in 1000 mL milli Q water) to milli Q water to make a total volume of 1 liter. The medium was treated with 0.5 g Chelex 100 resin (Bio-Rad Analytical grade, 50-100 mesh, sodium form, cat#142-2822) by stirring at room temperature for 1 hour. 900 mL were decanted and 45.9 mg of CaCl2.2H2O, 90 mg of MgSO4.7H2O and 0.9 mL Hutner's trace elements lacking CuSO4.5H2O were added and the solution was filter-sterilized. Medium containing copper (TAP Cu plus) was prepared by adding CuCl2.2H2O to the TAP Cu minus medium at 20 μM. Test compounds were dissolved in dimethylsulfoxide (DMSO) at 2 mg/mL then dilutions in TAP Cu minus and TAP Cu plus media were prepared in sterilized microcentrifuge tubes at 2 μg/mL. 100 μL aliquots of diluted compound were dispensed into flat-bottomed 96-well microtiter plates. C. reinhardtii was maintained under 12 h of light on TAP agar plates at 18° C. A loopful of cells was added to 50 mL of TAP Cu minus medium and the culture incubated with shaking at 200 rpm at 27° C. for 24 h. The culture (10 to 20 mL aliquot) was centrifuged in a bench centrifuge at 2000 rpm for 2 min. The resulting cell pellet was resuspended in 5 mL sterile milli Q water (which had been treated with Chelex 100 resin using 0.5 g resin per liter of water by stirring at room temperature for 1 h), and recentrifuged. The cells were resuspended in TAP Cu minus medium, and the suspension adjusted to 2×10^5 spores per mL. Microtiter plates containing compounds as described above were inoculated with 100 μL of this cell suspension and the plates incubated at 27° C. for 48 h before assessing algal growth by measuring light scattering in a NepheloStar plate-reader. Growth inhibition was determined by comparing growth in the presence of test compound with growth in control wells lacking test compound. Hydrazones and their isolated metal complexes were compared with respect to their in vitro activity toward C. reinhardtii and the cyanobacterium (blue-green alga) Synechocystis sp. strain 6803. Metal complexes of hydrazones were prepared by precipitation from ethanol with various metal salts at 1:1, 2:1 or 3:1 molar ratios, as described in general by Ainscough, Brodie, Dobbs, Ranford, and Waters (Inorganica Chimica Acta 1998, 267, 27-38, which is expressly incorporated by reference herein). In vitro assays against C. reinhardtii were conducted as described in Example 10 using TAP Cu minus medium. Growth inhibition was determined by comparing growth in the presence of test compound with growth in control wells lacking test compound. Results for growth inhibition of C. reinhardtii by hydrazones and corresponding isolated metal complexes (each at 1 μg/mL) are shown in Table 6.

[1] = system: Synechocystis sp. strain 6803; assay: Effect of copper on activity of hydrazones: in vitro growth inhibition of Synechocystis in BG-11 Cu minus / Cu plus medium (Example 11); type: cell-based; conditions: for inhibition of growth at 0.05 µg/mL / inhibition of growth at 0.0125 µg/mL / inhibition of growth at 0.00625 µg/mL: Synechocystis, BG-11 Cu minus medium, read-out: % Inhn. Minus Copper Observed; for inhibition of growth at 0.05 µg/mL / % Inhn. Plus Copper Observed / inhibition of growth at 0.0125 µg/mL / inhibition of growth at 0.00625 µg/mL: 72 h; for % Inhn. Plus Copper Observed: BG-11 Cu plus medium
In short: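 Synechocystis sp. 6803 in Chelex-treated, copper-free BG-11 (pH 7.1) or the same medium plus 0.2 μM CuCl2, inoculated from a 4×10^5/mL suspension. Growth after 72 h at 27 °C was measured by light scattering and expressed as % inhibition versus compound-free wells. Copper-plus results were compared with Colby-predicted values.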

SMILES | inhibition of growth at 0.05 µg/mL ([1]; Test Concn. 0.05 μg/mL) [%] | % Inhn. Plus Copper Observed ([1]; Test Concn. 0.05 μg/mL) [%] | inhibition of growth at 1 µg/mL (C. reinhardtii) [%] | further results
O=C(N/N=C/c1cc(Cl)cc(Cl)c1O)c1ccccc1.O=C(N/N=C/c1cc(Cl)cc(Cl)c1O)c1ccccc1.[Cl-].[Cl-].[Cu+2] [Compound 76] | – | – | – | Complex % Inhn. (C. reinhardtii): 75%
Cc1ccccc1C(=O)N/N=C/c1cc(Cl)cc(Cl)c1O [Compound 63] | 37 | 94 | -18 | –
C/C(=N\NC(=O)c1ccc(C)cc1)c1cc(Cl)cc(Cl)c1O [Compound 26] | 54 | 95 | – | –
O=C(N/N=C/c1ccc(Cl)c(Cl)c1O)c1ccccc1 [Compound 21] | – | – | 6 | inhibition of growth at 0.0125 µg/mL ([1]; Test Concn. 0.0125 μg/mL): 39%; % Inhn. Plus Copper Observed ([1]; Test Concn. 0.0125 μg/mL): 96%
O=C(N/N=C/c1cccc(Cl)c1O)c1ccc(Cl)cc1 [Compound 52] | – | – | -4 | inhibition of growth at 0.0125 µg/mL ([1]; Test Concn. 0.0125 μg/mL): 8%; % Inhn. Plus Copper Observed ([1]; Test Concn. 0.0125 μg/mL): 90%
C/C(=N\NC(=O)c1ccccc1)c1cc(Cl)cc(Cl)c1O [Compound 6] | 19 | 99 | 13 | –
C/C(=N\NC(=O)c1ccc(Cl)cc1)c1cc(Cl)cc(Cl)c1O [Compound 12] | – | – | 4 | inhibition of growth at 0.0125 µg/mL ([1]; Test Concn. 0.0125 μg/mL): 21%; % Inhn. Plus Copper Observed ([1]; Test Concn. 0.0125 μg/mL): 82%
O=C(NN=Cc1cc(Cl)cc(Cl)c1O)c1ccccc1.O=C(NN=Cc1cc(Cl)cc(Cl)c1O)c1ccccc1.[Cl-].[Cl-].[Zn+2] [Compound 78] | – | – | – | Complex % Inhn. (C. reinhardtii): −5%
C/C(=N\NC(=O)c1cccc(C)c1)c1cc(Cl)cc(Cl)c1O [Compound 25, 3-methyl-benzoic acid [1-(3,5-dichloro-2-hydroxyphenyl)-ethylidene]-hydrazide] | 18 | 92 | 33 | –
O=C(N/N=C/c1cc(Cl)cc(Cl)c1O)c1ccccc1.O=C(N/N=C/c1cc(Cl)cc(Cl)c1O)c1ccccc1.O=S(=O)([O-])[O-].[Cu+2] [Compound 74] | – | – | – | Complex % Inhn. (C. reinhardtii): 96%
O=C(N/N=C/c1cc(Cl)cc(Cl)c1O)c1ccccc1.O=C(N/N=C/c1cc(Cl)cc(Cl)c1O)c1ccccc1.[Cl-].[Cl-].[Mn+2] [Compound 77] | – | – | – | Complex % Inhn. (C. reinhardtii): −1%
O=C(N/N=C/c1cc(C(F)(F)F)cc(C(F)(F)F)c1O)c1ccc(Cl)cc1 [Compound 32] | 26 | 91 | 21 | –
O=C(N/N=C/c1cc(Cl)cc(Cl)c1O)c1ccccc1O [Compound 7] | 22 | 96 | 29 | –
CC(=O)[O-].CC(=O)[O-].O=C(N/N=C/c1cc(Cl)cc(Cl)c1O)c1ccccc1.O=C(N/N=C/c1cc(Cl)cc(Cl)c1O)c1ccccc1.[Cu+2] [Compound 73] | – | – | – | Complex % Inhn. (C. reinhardtii): 96%
[Cl][Cu][Cl] [CuCl2, Copper chloride, reference compound] | – | – | – | % Inhn. by copper chloride alone ([1]; CuCl2, 10 μM (so in the source), copper-plus vs copper-minus medium without test compound, across experiments): 7.0 ± 4.6%
O=C(N/N=C/c1c(C(F)(F)F)ccc(Cl)c1O)c1ccc(Cl)cc1 [Compound 56] | – | – | 11 | inhibition of growth at 0.0125 µg/mL ([1]; Test Concn. 0.0125 μg/mL): 28%; % Inhn. Plus Copper Observed ([1]; Test Concn. 0.0125 μg/mL): 75%
O=C(N/N=C/c1cc(Cl)cc(Br)c1O)c1ccccc1O [Compound 18] | – | – | 13 | inhibition of growth at 0.0125 µg/mL ([1]; Test Concn. 0.0125 μg/mL): 47%; % Inhn. Plus Copper Observed ([1]; Test Concn. 0.0125 μg/mL): 86%
O=C(N/N=C/c1cc(Cl)cc(C(F)(F)F)c1O)c1ccccc1 [Compound 27] | 31 | 95 | 30 | –
O=C(N/N=C/c1cc(Cl)cc(Cl)c1O)c1ccccc1 [Compound 1] | 29 | 91 | 16 | –
O=C(N/N=C/c1cc(Cl)cc(Br)c1O)c1ccccc1 [Compound 14] | 50 | 97 | 6 | –
CC(=O)[O-].CC(=O)[O-].O=C(N/N=C/c1cc(Cl)cc(Cl)c1O)c1ccccc1.[Cu+2] [Compound 72] | – | – | – | Complex % Inhn. (C. reinhardtii): 96%
O=C(N/N=C/c1cc(Cl)cc(Br)c1O)c1ccc(Cl)cc1 [Compound 15] | – | – | 11 | inhibition of growth at 0.00625 µg/mL ([1]; Test Concn. 0.00625 μg/mL): 15%; % Inhn. Plus Copper Observed ([1]; Test Concn. 0.00625 μg/mL): 74%
O=C(N/N=C/c1c(Cl)ccc(Cl)c1O)c1ccc(Cl)cc1 [Compound 45] | – | – | 9 | inhibition of growth at 0.00625 µg/mL ([1]; Test Concn. 0.00625 μg/mL): 33%; % Inhn. Plus Copper Observed ([1]; Test Concn. 0.00625 μg/mL): 78%
O=C(N/N=C/c1cc(Cl)cc(Cl)c1O)c1ccccc1.[Cl-].[Cl-].[Cu+2] [Compound 75] | – | – | – | Complex % Inhn. (C. reinhardtii): 95%
